Results published in US6770676B2, “Dicarboxylic acid derivatives” (Taisho Pharmaceutical Co., Ltd., priority 2000, dated 2004).

Experiments:
[1] = biological target: T1, metabotropic glutamate receptors mGluR2 (Rattus norvegicus, UniProt P31421); test: Effects of test compounds on cAMP accumulation (antagonism of glutamic acid suppression of Forskolin-stimulated cAMP) in CHO cells expressing mGluR2; format: cell-based; settings: CHO cells stably expressing mGluR2; 50% inhibition of suppression by 30 μM glutamic acid of cAMP increase by 10^-5 M Forskolin; cAMP EIA kit
T1 construct: expressed in transfected cells
T1 sequence (P31421 19-872): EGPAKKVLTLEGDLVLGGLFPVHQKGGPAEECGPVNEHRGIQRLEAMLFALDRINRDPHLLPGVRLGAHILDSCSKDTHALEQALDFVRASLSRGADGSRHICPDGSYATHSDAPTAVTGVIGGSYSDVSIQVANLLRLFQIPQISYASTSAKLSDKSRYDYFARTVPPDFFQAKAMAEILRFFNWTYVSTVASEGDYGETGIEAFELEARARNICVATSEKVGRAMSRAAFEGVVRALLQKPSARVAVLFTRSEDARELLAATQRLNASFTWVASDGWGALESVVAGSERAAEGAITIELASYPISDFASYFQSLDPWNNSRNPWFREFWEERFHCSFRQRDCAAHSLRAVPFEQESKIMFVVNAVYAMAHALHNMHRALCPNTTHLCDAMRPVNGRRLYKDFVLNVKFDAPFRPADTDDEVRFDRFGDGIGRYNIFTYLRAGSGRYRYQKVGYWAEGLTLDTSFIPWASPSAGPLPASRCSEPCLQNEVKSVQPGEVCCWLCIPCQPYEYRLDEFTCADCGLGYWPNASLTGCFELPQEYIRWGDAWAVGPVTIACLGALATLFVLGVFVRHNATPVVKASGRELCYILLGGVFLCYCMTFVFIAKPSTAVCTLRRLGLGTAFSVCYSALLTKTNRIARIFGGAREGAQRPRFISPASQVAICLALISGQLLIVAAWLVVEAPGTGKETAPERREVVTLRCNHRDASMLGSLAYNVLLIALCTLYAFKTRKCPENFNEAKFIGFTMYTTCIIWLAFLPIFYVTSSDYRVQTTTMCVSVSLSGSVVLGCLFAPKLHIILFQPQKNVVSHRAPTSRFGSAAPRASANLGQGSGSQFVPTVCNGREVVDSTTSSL
Procedure: Experimental Example (Effects of Test Compounds on cAMP Accumulation)
CHO cells stably expressing metabotropic glutamate receptors mGluR2 were seeded in a 96-well plate in the ratio of 1.26×10^4 cells/well/0.32 cm^2/150 μl in Dalbeco-modified Eagle medium [1% proline, 50 units/ml penicillin, 50 μg/ml streptomycin, 2 mM L-glutamine (added when used)] containing 10% dialyzed fetal bovine serum, and were cultured for 2 days at 37° C. under an atmosphere of 5% CO2. Subsequently, the medium was replaced with an L-glutamine free medium. Four hours later, the supernatant liquid was aspirated. […] A study was carried out for the antagonistic effects of the test compounds on the Forskolin stimulation cAMP accumulation quantity suppression [for control, the conditions were set with no addition of the compounds (Tanabe et al., Neuron, 8, 169-179 (1992))]. The reactions were quenched by adding 100 μl of ice-cooled ethanol, the entire quantity of the supernatant liquid was collected in a separate plate, and was subsequently dried up at normal temperature with an evaporator, followed by preservation at −20° C. In the dried-up samples, the quantity of cAMP was measured using a cAMP EIA kit (from the Amasham company). The control value was subtracted from each cAMP quantity. […]

SMILES	melting point	IC50 [1]
N[C@@]1(C(=O)O)[C@H](O)C[C@@H]2[C@H]1[C@@]2(F)C(=O)O [Example 8, (1R,2R,3R,5R,6R)-2-amino-6-fluoro-3-hydroxy-bicyclo[3.1.0]hexane-2,6-dicarboxylic acid]	> 172 °C (dec.)	476 nM
N[C@@]1(C(=O)O)C=C[C@@H]2[C@H]1[C@@]2(F)C(=O)O [Example 7, (1R,2S,5R,6R)-2-amino-6-fluoro-bicyclo[3.1.0]hex-3-ene-2,6-dicarboxylic acid]	> 174 °C (dec.)	–
